Values of other authors as cited in patent publication US20190046468A1 (SUN PHARMACEUTICAL INDUSTRIES LIMITED, priority 2017, published 2019).

Experiments:
[1] = aqueous media and many other solvents including acetone
[2] = in vivo

solubility [1]: freely soluble
plasma half-life [2]: about 1 hour
Compound: COc1ccccc1OCC(O)CO (centres unmarked) [Guaifenesin]
